How the values were obtained:
hES cells [1] = experiment: Clonal survival of individualized hES cells (Example 4); type: cell-based, human; details: mTeSR1; 250 cells per cm^2; 5 days; alkaline phosphatase staining
Experimental: hES cells were plated in mTeSR1 medium on different coatings at a density of 250 cells per cm^2 and monitored after 5 days in culture using an alkaline phosphatase staining kit.
Next, combinations of laminin-521 and E-Cadherin were tested to determine whether the combinations could sustain clonal survival of the cells. Fixed amounts of laminin-521 were used for the cell culture dish coating in combination with titrated E-Cadherin.
Additional tests were performed to test the effects of various modifications to the mTeSR1 medium. A mixture of E-Cadherin to laminin-521 in a ratio of about 1:10 w/w was used to coat the plates. […] Time-lapse photography of the cells confirmed that laminin-521/E-Cadherin coatings facilitated cell survival through proliferation of the single cells, not through the aggregation of different cells.

myosin light chain (MLC) = experiment: Western blot of phosphorylated myosin light chain; type: cell-based, human; details: one and six hours after plating
Experimental: HS181 cells were trypsinized into single cell suspension as described above. For inhibition experiments, the cells were kept in O3 medium with blocking antibodies or pathway inhibitors for 30 minutes and then 450K cells were plated on 35 mm dishes precoated with the appropriate matrix coating. For other experiments, same number of cells was plated directly after trypsinization. […] After two washings in ice-cold PBS, the plates with cells were snap frozen in liquid nitrogen and stored at −80° C. To prepare samples for western blots and ELISA, the plates were slowly thawed and kept on ice with 100-150 μl of lysis buffer (50 mM Tris-HCl, pH7.5, 150 mM NaCl, 0.5% deoxycholate, 0.5% SDS, 1% Triton X-100, 1% Igepal, Complete™ (Roche) and Phospho-Stop™ (Roche)) on top. Then, the cells were scraped, pipetted and sheared through a 27G ¾″ needle. After that, the cell pellets were clarified by centrifugation at 16,100 rcf for 15 minutes at 4° C. For western blots, 4-12% gradient gels were used for SDS electrophoresis and the proteins were transferred to PVDF membranes. The membrane was hybridized with the antibody of interest according to the manufacturer's instructions. Chemoluminescent HRP-substrate from Amersham Biosciences was used for visualization. For the densitometry analysis the films were scanned at 2,400 dpi and analyzed by the Chemilmager5500 program (1D-Multi Line densitometry mode). […]

Integrin α6β1 = Integrin α6β1 (Homo sapiens, UniProt P05556+P23229); details: cited from earlier work
hES cells [2] = experiment: In vivo imaging and migration assay; type: cell-based, human
Experimental: 24-well plates were coated by extracellular matrix proteins and blocked by O3 medium containing bovine serum albumin. The ES cells were plated at cell density of 30,000-40,000 cells/cm^2 onto extracellular matrix-coated plates and left to adhere for half an hour in a cell incubator. After that, the plate was transferred into high content imaging system Operetta (PerkinElmer) equipped with environmental control unit, which allowed to keep 37° C., 5% CO2. For two movies that were made, the brightfield images were taken once in 15 minutes during 24 hours after plating using Harmony software (PerkinElmer), exported, and analyzed using ImageJ software (NIH, the US). For migration assay the images were taken every seven minutes during 18 hours after plating. Images acquired between the fifth and seventh hours after plating were analyzed using MTrackJ plug-in (University Medical Center, Rotterdam, The Netherlands). 100 attached cells on each coating were traced and mean distances from the current to the previous point of the track were calculated. Error bars show standard error of the mean s.e.m. (n=100).

hES cells [3] = experiment: Embryoid body formation; type: cell-based, human; details: same three cultures as teratoma test
Experimental: ES cells from LN-521 coated cell culture dishes were exposed to TrypLE™ Select for one minute at 37° C., 5% CO2, washes two times with a medium, broken into large pieces and cultured in suspension in low adhesion plates. The medium used for this was Knockout DMEM (GIBCO Invitrogen Corporation) supplemented with 2 mM L-glutamine, 20% fetal calf serum (GIBCO Invitrogen Corporation), 0.1 mM β-mercaptoethanol (GIBCO Invitrogen Corporation) and 1% non-essential amino acids (GIBCO Invitrogen Corporation). After 1-2 weeks in suspension, the embryoid bodies were transferred onto gelatin coated tissue cell culture 96-well plates (Sarstedt), cultured for 1-2 weeks, then fixed, stained with antibodies against markers of all three embryonic germ line layers (smooth muscle actin, MAP-2 and α-fetoprotein) and analyzed as described above for immunofluorescence.

[4] = test system: human embryonic stem cell; experiment: Survival after dissociation into single cell suspension (description); type: cell-based; details: O3 medium; 30 Kcells/cm^2; precoated dishes
Text: In other aspects, the present disclosure provides a new material, isolated laminin-521, which permits human embryonic stem cell survival after dissociation into single cell suspension. The stem cells were dissociated into single cell suspension by Trypsin-EDTA treatment, pelleted by centrifugation, resuspended into O3 medium, filtered through a 40 μm sieve, and plated at a density of 30 Kcells/cm^2 on cell culture dishes precoated by either isolated laminin-521, laminin-511, or Matrigel. After one day in culture, the cells plated on Matrigel died, as is known in the art.

[5] = test system: human iPS ChiPSW and CutB1.2 cells; experiment: Long-term self-renewal of human iPS cells on LN-521; type: cell-based; details: mTeSR1

Chain of Integrin α6β1 (P23229 24-1130): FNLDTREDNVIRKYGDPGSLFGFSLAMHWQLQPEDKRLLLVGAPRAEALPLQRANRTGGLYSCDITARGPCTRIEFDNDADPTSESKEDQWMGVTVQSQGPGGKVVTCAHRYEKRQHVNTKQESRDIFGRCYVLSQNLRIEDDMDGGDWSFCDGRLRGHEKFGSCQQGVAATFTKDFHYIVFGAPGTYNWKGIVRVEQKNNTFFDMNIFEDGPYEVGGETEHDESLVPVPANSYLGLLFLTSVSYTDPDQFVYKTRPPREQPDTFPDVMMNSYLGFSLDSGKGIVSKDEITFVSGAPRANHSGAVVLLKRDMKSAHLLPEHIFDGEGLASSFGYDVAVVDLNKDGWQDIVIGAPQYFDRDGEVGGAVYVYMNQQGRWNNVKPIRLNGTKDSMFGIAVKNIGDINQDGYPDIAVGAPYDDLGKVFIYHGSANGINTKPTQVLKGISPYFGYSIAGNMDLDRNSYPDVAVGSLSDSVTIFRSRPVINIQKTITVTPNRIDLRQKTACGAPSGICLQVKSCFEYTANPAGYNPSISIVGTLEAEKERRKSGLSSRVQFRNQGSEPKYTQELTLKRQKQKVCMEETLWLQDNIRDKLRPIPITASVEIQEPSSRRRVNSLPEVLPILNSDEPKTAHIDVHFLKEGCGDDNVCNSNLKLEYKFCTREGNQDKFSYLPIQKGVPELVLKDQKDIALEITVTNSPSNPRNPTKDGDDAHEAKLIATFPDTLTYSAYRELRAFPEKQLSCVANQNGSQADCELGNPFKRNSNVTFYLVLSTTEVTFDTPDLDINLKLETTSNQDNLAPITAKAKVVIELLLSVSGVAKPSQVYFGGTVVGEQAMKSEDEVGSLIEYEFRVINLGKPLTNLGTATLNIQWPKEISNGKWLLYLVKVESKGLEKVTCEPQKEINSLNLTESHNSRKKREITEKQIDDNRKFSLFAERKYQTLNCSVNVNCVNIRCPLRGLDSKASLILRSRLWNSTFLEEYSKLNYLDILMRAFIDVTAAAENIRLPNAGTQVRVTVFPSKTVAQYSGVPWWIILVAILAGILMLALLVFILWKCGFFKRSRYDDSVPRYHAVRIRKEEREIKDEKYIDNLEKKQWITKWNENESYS
Chain of Integrin α6β1 (P05556 21-798): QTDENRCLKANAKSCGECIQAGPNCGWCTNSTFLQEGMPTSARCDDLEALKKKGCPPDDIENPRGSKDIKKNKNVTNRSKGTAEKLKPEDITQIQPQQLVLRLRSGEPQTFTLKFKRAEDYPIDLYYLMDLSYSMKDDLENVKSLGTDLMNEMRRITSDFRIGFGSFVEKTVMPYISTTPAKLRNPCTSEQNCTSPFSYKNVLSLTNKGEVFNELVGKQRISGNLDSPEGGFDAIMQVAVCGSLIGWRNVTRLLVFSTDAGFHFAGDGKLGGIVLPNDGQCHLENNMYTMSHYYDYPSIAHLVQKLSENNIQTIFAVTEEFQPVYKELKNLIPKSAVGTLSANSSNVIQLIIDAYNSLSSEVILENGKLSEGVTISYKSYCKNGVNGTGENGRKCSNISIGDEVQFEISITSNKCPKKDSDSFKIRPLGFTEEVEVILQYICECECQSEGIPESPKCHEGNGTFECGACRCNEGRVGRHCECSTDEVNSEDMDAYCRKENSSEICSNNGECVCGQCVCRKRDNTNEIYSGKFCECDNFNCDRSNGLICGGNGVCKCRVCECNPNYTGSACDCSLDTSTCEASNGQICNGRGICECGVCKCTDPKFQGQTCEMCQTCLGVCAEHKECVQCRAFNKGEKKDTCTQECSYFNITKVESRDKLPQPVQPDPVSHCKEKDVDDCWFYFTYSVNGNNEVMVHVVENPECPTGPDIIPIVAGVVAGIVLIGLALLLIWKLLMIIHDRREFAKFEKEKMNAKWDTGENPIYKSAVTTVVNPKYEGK

## LN-521: protein formed by joining α5, β2 and γ1 chains together; human recombinant, produced in HEK293 cells
hES cells [1]
  clonal survival of individualized hES cells: Neither laminin-521 nor E-Cadherin alone permitted efficient clonal survival
Myosin light chain (MLC)
  phosphorylation of MLC compared with cells on Matrigel and LN-111: even higher
Integrin α6β1
  binding affinity of integrin α6β1: higher than that for LN-111
hES cells [2]
  migration of cells (in vivo imaging) compared with Matrigel: much faster
hES cells [2]; compared with Matrigel, LN-111, LN-511
  motility of hES cells between the fifth and seventh hours after plating: higher than that of the cells on other coatings
hES cells [3]
  differentiation in vitro: embryoid bodies expressing markers of mesoderm, ectoderm and endoderm: retained the competence to form embryoid bodies
[4]
  survival of hES cells plated from single cell suspension after one day in culture: survived and started to proliferate
[5]
  passages cultured, ChiPSW cells: 3 passages
  passages cultured, CutB1.2 iPS cells: 5 passages

— patent US8415156B2, “Recombinant laminin-521” (Biolamina AB, priority 2010, dated 2013)
